Measurements as given in US20150190407A1, “METHODS FOR TREATMENT OF POSTOPERATIVE INFLAMMATION WITH REDUCED INTRAOCULAR PRESSURE” (Insite Vision Incorporated, priority 2014, published 2015).
Where two headings read alike, the source gives them in different places.

Legend:
[1] = cited from earlier work
[2] = after 8 days of treatment for inflammation following ocular surgery; cited from earlier work
[3] = Release from the vehicle in the rabbit eye, measured in aqueous humor; assay type: in vivo; settings: in the ophthalmically acceptable vehicle
Experimental: The viscous gels that result upon administration of the aqueous suspensions of the present disclosure to the eye have residence times in the eye ranging from about 2 to about 12 hours, e.g., from about 3 to about 6 hours. The active ingredients contained in these ophthalmically acceptable vehicles are released from the gels at rates that depend on such factors as the active ingredient itself and its physical form, the extent of drug loading and the pH of the system, as well as on any drug delivery adjuvants, such as ion exchange resins compatible with the ocular surface, which can also be present.

C[C@@H]1C[C@H]2[C@@H]3CCC4=CC(=O)C=C[C@]4(C)[C@@]3(F)[C@@H](O)C[C@]2(C)[C@@]1(O)C(=O)COP(=O)(O)O [dexamethasone phosphate]
increase of intraocular pressure ([1]; after one week): 1-2 mmHg
increase of intraocular pressure ([1]; after six weeks): 5-6 mmHg
increase of intraocular pressure ([1]; after two weeks): 3-4 mmHg
median intraocular pressure vs placebo (saline 0.9%) [2]: significantly higher

CC(=O)[C@@]1(O)CC[C@H]2[C@@H]3C[C@H](C)C4=CC(=O)C=C[C@]4(C)[C@@]3(F)[C@@H](O)C[C@@]21C [fluorometholone]
release rates in the rabbit eye, as measured by fluorometholone contained in the aqueous humor [3]: in excess of four hours

C[C@@H]1C[C@H]2[C@@H]3CCC4=CC(=O)C=C[C@]4(C)[C@@]3(F)[C@@H](O)C[C@]2(C)[C@@]1(O)C(=O)CO [dexamethasone]
rise in IOP (published data) ([1]; administered without the benefit of a sustained release vehicle): 3-4 mmHg
